Peptide text beside a SMILES is read from it. * marks the point of attachment. Cbz = O=C(OCc1ccccc1)*; CH2F = FC*
Assays:
Format in all cases: cell-based, human
[1] = test system: GCN2, PKR, eIF2α, ATF4, CHOP in HT29 cells; test: Western blot, ISR kinases / eIF2α / ATF4 / CHOP; settings: pre-treatment 2 hours, then ONC201 or PG3 for 24 hour
Method: Figure 7 PG3 induces upregulation of ATF4 through ISR via HRI. (A) HT29 cells were treated with PG3, GSK2606414, TG and ONC201 respectively, or co-treatment with PG3/GSK2606414, PG3/TG, and PG3/ONC201 for 15 h. (B) MEF, MEF^PERK−/− and MEF^GCN2−/− cells were treated with PG3 and ONC201 for 16 hours. (C) HT29 cells were transfected with siControl, siPKR, siHRI and siPKR/siHRI for 24 hours and then treated with PG3 for 16 hours. (D) HCT116 p53^−/− cells were transfected with siControl and siHRI for 24 hours and then treated with PG3 for 16 hours. (E) HCT116 p53^−/− cells were treated with PG3 and ONC201 for indicated times. (F) PANC1-sgCtrl, -sgHRI and -sgPKR cell lines were treated with PG3 and imipridones (ONC201, ONC206 and ONC212) for 16 hours. Western blot was performed using indicated antibodies. (G) Proposed model of PG3-induced cell apoptosis through HRI/ATF4/PUMA axis. Abbreviation: L.E.: Long exposure.
(§1) After treatment, protein lysates were collected for Western blot analysis. A total of 15 μg of protein was used for SDS-PAGE. After primary and secondary antibody incubations, the signal was detected by a chemiluminescence detection kit, imaged by Syngene (Imgen Technologies). Antibodies for NAG-1 (GDF15) and P53 were from Santa Cruz Biotechnology; for caspase 8, cleaved caspase 8, caspase 9, caspase 3, cleavage PARP, eIF2α, p-eIF2α (Ser51), CHOP, ATF4, DR5, and PUMA were from Cell Signaling Technology. Noxa and p21 were from Calbiochem. Ran was from BD Biosciences.
Supplementary Figure 2: ROS and NO are not responsible for PG3-induced HRI activation. (A, B) cells were pre-treated
with ZnPP, L-NMMA, SA and NAC for 2 hours respectively, and then ONC201 or PG3 was added to the medium for 24 hour treatment.
Western blot was performed using indicated antibodies.
(1 picture or pasted object on this page, not shown here)

[2] = test system: cleaved caspase-8, -3, cleaved PARP and PUMA in HT29, SW480 and HCT116 p53−/− cells; test: Western blot, apoptosis markers in PG3-treated cells; settings: co-treatment with PG3; HT29, SW480, HCT116 p53–/–
Method: Figure 5 PG3 induces apoptosis in p53-null and p53-mutant cancer cell lines. (A–E) Dose-response and time-course analysis of cleavage of caspase-8, -3, cleaved PARP and PUMA in PG3-treated HT29, SW480 and HCT116 p53^−/− cells by western blot using the indicated antibodies. (F–H) Flowcytometry analysis of cell death. (I) HT29 and HT29-PUMA^−/− and (J) SW480 cells were co-treated with PG3 and pan-caspase inhibitor Z-VAD-fmk for 48 h. (K) HCT116 p53^−/− cell were co-treated with PG3 and Z-VAD-fmk for 24 hours.
as §1

[3] = test system: TOV-112D (R175H); test: Cell viability assay (CellTiterGlo), TOV-112D; settings: TOV-112D, 6.67 μM
Method: (§2) Figure 1 PG3 inhibits cell proliferation and growth in a p53-indepent manner. (A–E) Cell viability assay, dose response curves and IC50 value measurements in a panel of cancer cell lines and normal cells. Cells were treated with different concentrations of PG3, PG3-Oc (Oc), obatoclax (Ob), prodigiosin (P) or DMSO for 72 h. Luciferase activity was imaged by the IVIS Imaging System after treatment. Cell viability data were normalized to those of DMSO treatment control in each cell line and data analyses were performed using PRISM4 software. IC50 data are expressed as the mean ±SD (normal; n = 3).
as §2, with “2 p53-dependent inhibition of” for “1 PG3 inhibits”, “is only observed at specific concentrations. (A–J)” for “and growth in a p53-indepent manner. (A–E)”, “ZMC1, CP-313908, APR-246, Ellipticine, Nutalin-3a” for “PG3, PG3-Oc (Oc), obatoclax (Ob), prodigiosin (P)”
(§3) Cells were seeded in 96-well plates (6 × 10^3 cells/well). Cells were treated with different concentrations of compounds or dimethyl sulfoxide (DMSO) as a control for 72 hours. The cell viability was assessed by CellTiterGlo bioluminescent cell viability assay (Promega), following the manufacturer’s protocol. Bioluminescence imaging was measured using the IVIS imager. The percentage of cell viability (mean ± SEM) at each dose was calculated against the respective DMSO control. The IC50 values were determined from the sigmoidal dose-response curves using GraphPad Prism.

[4] = test system: HCT116 (P53−/−); test: Cell viability assay (CellTiterGlo), HCT116 p53-/-
Method: as §2
as §2, with “2 p53-dependent inhibition of” for “1 PG3 inhibits”, “is only observed at specific concentrations. (A–J)” for “and growth in a p53-indepent manner. (A–E)”, “ZMC1, CP-313908, APR-246, Ellipticine, Nutalin-3a” for “PG3, PG3-Oc (Oc), obatoclax (Ob), prodigiosin (P)”
as §3

[5] = test system: HCT116 (WT); test: Cell viability assay (CellTiterGlo), HCT116 WT; settings: 72 h, CellTiterGlo
Method: as §2
as §2, with “2 p53-dependent inhibition of” for “1 PG3 inhibits”, “is only observed at specific concentrations. (A–J)” for “and growth in a p53-indepent manner. (A–E)”, “ZMC1, CP-313908, APR-246, Ellipticine, Nutalin-3a” for “PG3, PG3-Oc (Oc), obatoclax (Ob), prodigiosin (P)”
as §3

[6] = test system: HCT116 (R175H); test: Cell viability assay (CellTiterGlo), HCT116 R175H
Method: as §2
as §2, with “2 p53-dependent inhibition of” for “1 PG3 inhibits”, “is only observed at specific concentrations. (A–J)” for “and growth in a p53-indepent manner. (A–E)”, “ZMC1, CP-313908, APR-246, Ellipticine, Nutalin-3a” for “PG3, PG3-Oc (Oc), obatoclax (Ob), prodigiosin (P)”
as §3

[7] = test system: HT29, TOV-112D, isogenic HCT116 cell lines, HFF-1 and MRC5; test: Cell viability assay, panel of cancer cell lines and normal cells (results in words)
Method: as §2, with “2 p53-dependent inhibition of” for “1 PG3 inhibits”, “is only observed at specific concentrations. (A–J)” for “and growth in a p53-indepent manner. (A–E)”, “ZMC1, CP-313908, APR-246, Ellipticine, Nutalin-3a” for “PG3, PG3-Oc (Oc), obatoclax (Ob), prodigiosin (P)”
as §3

[8] = test system: SW480 cells carrying a p53-responsive luciferase reporter; test: p53-responsive reporter assay; settings: up to 60 μM, 6 hour and 15 hour time points
Method: SW480 cells carrying a p53-responsive luciferase reporter were used for assay of functional restoration of mutant p53. Cells were seeded in 96-well plates (5 × 10^4 cells/well) and were treated with compounds indicated for 6 and 15 h, respectively. Then, D-luciferin was added to each well with final concentration 100 μg/mL, and cells were imaged by using an IVIS Imaging System to detect luciferase activity.
p53-mutant SW480 human colon cancer cells, stably expressing a p53-responsive luciferase reporter, were used to assay functional restoration p53 pathway-dependent transcription in mutant p53-expressing tumor cells. Cells were seeded in 96-well plates (5 × 10^4 cells/well) and were treated with small-molecule compounds for 6 and 15 h, respectively. Then, D-luciferin was added to each well at a final concentration of 100 μg/mL, and cells were imaged by using an IVIS Imaging System (Xenogen) to detect luciferase activity.

[9] = test system: ATF4; test: Western blot, ATF4 induction; settings: five cancer cell lines, 24 h
Method: (§4) Figure 4 Activation of ATF4 and up-regulation of typical p53 target genes. (A–E) Western blot analysis of p53 protein levels and upregulation of ATF4, PUMA, DR5 and p21. Cells were treated for 24 h with indicated compounds, concentrations and cell lines. Abbreviations: S.E.: Short exposure; L.E.: Long exposure.
as §1

[10] = test system: p53 protein; test: Western blot, p53 protein levels
Method: Cells were treated for 24 h with indicated compounds, concentrations and cell lines. Abbreviations: S.E.: Short exposure; L.E.: Long exposure.
as §1

[11] = test system: PUMA; test: Western blot, PUMA induction; settings: HCT116 (p53 wild-type), 24 h
Method: as §4, §1

[12] = test system: p21; test: Western blot, p21 induction; settings: 24 h
Method: as §4, §1

CC(=O)N[C@@H](CS)C(=O)O [NAC, N-acetylcysteine]
effect on PG3- or ONC201-induced upregulation of ATF4 [1]: do not attenuate or block

COC(=O)C[C@H](NC(=O)[C@H](C)NC(=O)[C@@H](NC(=O)OCc1ccccc1)C(C)C)C(=O)CF [Z-VAD-FMK] (Cbz-Val-Ala-Asp(OMe)-CH2F)
effect on PG3-induced cleavage of PARP, caspase-8 and -3 [2]: potently inhibits the cleavage of PARP, caspase-8, and -3

COCC1(CO)C(=O)C2CCN1CC2 (stereo not shown) [APR-246]
inhibition of proliferation [3]: almost completely inhibited
IC50 ([4]; 72 h, CellTiterGlo): 11.3 µM
fold more sensitive than the p53 wild-type HCT116 cell line ([4]; p53-null HCT116 vs HCT116 WT, 'at a concentration of 20 μM'): 2.9 fold
IC50 [5]: 33 µM
IC50 ([6]; 72 h, CellTiterGlo): 8.87 µM
fold more sensitive than the p53 wild-type HCT116 cell line ([6]; p53-mutated R175H HCT116 vs HCT116 WT, 'at a concentration of 20 μM'): 3.7 fold
inhibitory effects on normal cells ([7]; HFF-1 and MRC5, 0.08 μM): no detectable inhibitory effects
inhibition of proliferation ([7]; TOV-112D and HT29, 0.08 μM): potently inhibited
p53-responsive reporter activity [8]: not able to activate the reporter
upregulation of ATF4 [9]: does not upregulate ATF4
wild-type p53 protein level ([10]; HCT116, 24 h): no effect
endogenous mutant p53 R273H protein level ([10]; HT29, 24 h): stabilizes
endogenous mutant p53 R175H protein level ([10]; TOV-112D, 24 h): stabilizes
exogenous mutant p53 R175H protein level ([10]; engineered HCT116-R175H cells, 24 h): does not stabilize
upregulation of PUMA [11]: upregulates PUMA
upregulation of p21 ([12]; HCT116 (p53 wild-type)): slightly induces p21
upregulation of p21 ([12]; TOV-112D): slightly induces p21

— PMC11407758, “Integrated stress response (ISR) activation and apoptosis through HRI kinase by PG3 and other p53 pathway-restoring cancer therapeutics” (Oncotarget, 2024)
